Results from patent US20200368198A1, “METHODS FOR INCREASING FERTILITY” (NEWSOUTH INNOVATIONS PTY LIMITED, priority 2017, published 2020).
Several values for one entry are separate records, joined by “and”; a condition that tells them apart may be missing. Equal entries are not always repeated.

Test system: C57BL6 female mice
Experiment: Cumulus oocyte complex yield after PMSG superovulation, doxorubicin with or without NMN
Format: in vivo
Details: per mouse, single dose doxorubicin 10 mg/kg i.p. and/or NMN 2 g/L drinking water, 2 months post doxorubicin
Protocol: To assess oocyte yield, and mice were hormonally stimulated to superovulated by intraperitoneal injection with 7.5 IU/mL of Pregnant Mare's Serum Gonadotropin (PMSG) (Folligon; Intervet, Boxmeer, Holland) to stimulate follicular growth. After 44-46 hours, ovaries were collected in HEPES-buffered minimum essential medium (aMEM; […] Sigma Aldrich, St. Louis, Mo.) and 100 μM IBMX (Sigma Aldrich). […] NMN was delivered through addition to drinking water at 2 g/L, for a final dose of approximately 165 mg/kg. Administration of NMN began one day prior to doxorubicin administration. […] Ovaries were then punctured to release MI oocytes. In a separate cohort of animals, the same experiment was repeated using animals treated with the platinum based chemotherapy drug cisplatin. In FIG. 6 and Table 1, numbers of cumulus oocyte complexes are listed.

NC(=O)c1ccc[n+]([C@@H]2O[C@H](COP(=O)([O-])O)[C@@H](O)[C@H]2O)c1 [NMN, nicotinamide mononucleotide]
Numbers of cumulus oocyte complexes released from mice: able to protect against doxorubicin induced oocyte loss and 33 and 17 and 15 and 10 and 18 and 13
